Values joined by “and” are separate entries in the source; they are usually repeats but may differ in a detail not shown here. Equal values may be shown once. Read-outs that look alike come from different tables or passages of the source. Each block holds one molecule with its values, some of them ahead of it.
Columns and labels:
HCMV [1] = test: HCMV plaque reduction assay (Towne strain) in HFF cells; type: cell-based, Human cytomegalovirus
Description: (§1) Stock HCMV was prepared by infecting HFF cells at a multiplicity of infection (m.o.i.) of <0.01 plaque-forming units (p.f.u.) per cell as detailed previously (see Turk, S. R.; Shipman, C., Jr.; Nassiri, M. R.; Genzingler, G.; Krawczyk, S. H.; Townsend, L. B.; Drach, J. C. Pyrrolo[2,3-d]pyrimidine Nucleosides as Inhibitors of Human Cytomegalovirus, Antimicrob. Agents Chemother. 1987, 31, 544-550). High titer HSV-1 stocks were prepared by infecting KB cells (ATCC) at an m.o.i. of <0.1 also as detailed previously (see Turk, S. R.; Shipman, C., Jr.; Nassiri, M. R.; Genzingler, G.; Krawczyk, S. H.; Townsend, L. B.; Drach, J. C. Pyrrolo[2,3-d]pyrimidine Nucleosides as Inhibitors of Human Cytomegalovirus, Antimicrob. Agents Chemother. 1987, 31, 544-550). Virus titers were determined using monolayer cultures of HFF cells for HCMV and monolayer cultures of BSC-1 cells for HSV-1 as described earlier (see Prichard, M. N.; Turk, S. R.; Coleman, L. A.; Engelhardt, S. L.; Shipman, C., Jr.; Drach, J. C. A Microtiter Virus Yield Reduction Assay for the Evaluation of Antiviral Compounds Against Human Cytomegalovirus and Herpes Simplex Virus. J. Virol. Methods 1990, 28, 101-106). Briefly, HFF or BSC-1 cells were planted as described above in 96-well cluster dishes and incubated overnight at 37° C. The next day cultures were inoculated with HCMV or HSV-1 and serially diluted 1:3 across the remaining eleven columns of the 96-well plate. After virus adsorption the inoculum was replaced with fresh medium and cultures were incubated for seven days for HCMV, two or three days for HSV-1. Plaques were enumerated under 20-fold magnification in wells having the dilution which gave 5 to 20 plaques per well. Virus titers were calculated according to the following formula: Titer (p.f.u./mL)=number of plaques×5×3^n; where n represents the nth dilution of the virus used to infect the well in which plaques were enumerated.
(§2) HFF cells in 24-well cluster dishes were infected with approximately 100 p.f.u. of HCMV per cm^2 cell sheet using the procedures detailed above. Following virus adsorption, compounds dissolved in growth medium were added to duplicate wells in four to eight selected concentrations. After incubation at 37° C. for 7 to 10 days, cell sheets were fixed, stained with crystal violet and microscopic plaques enumerated as described above.
(§3) Dose-response relationships were constructed by linearly regressing the percent inhibition of parameters derived in the preceding sections against log drug concentrations. Fifty-percent inhibitory concentrations (IC50's) or IC90's were calculated from the regression lines. Samples containing positive controls (acyclovir for HSV-1, ganciclovir for HCMV, and 2-acetylpyridine thiosemicarbazone for cytotoxicity) were used in all assays.

HCMV [2] = test: HCMV yield reduction assay (Towne strain) in HFF cells; type: cell-based, Human cytomegalovirus
Description: as §1
HFF cells were planted as described above in 96-well cluster dishes, incubated overnight, medium removed and the cultures were inoculated with HCMV at a m.o.i. of 0.5 to 1 p.f.u. per cell as reported elsewhere (see Prichard, M. N.; Turk, S. R.; Coleman, L. A.; Engelhardt, S. L.; Shipman, C., Jr.; Drach, J. C. A Microtiter Virus Yield Reduction Assay for the Evaluation of Antiviral Compounds Against Human Cytomegalovirus and Herpes Simplex Virus. J. Virol. Methods 1990, 28, 101-106). After virus adsorption, inoculum was replaced with 0.2 mL of fresh medium containing test compounds. The first row of 12 wells was left undisturbed and served as virus controls. Each well in the second row received an additional 0.1 mL of medium with test compound at three times the desired final concentration. The contents of the 12 wells were mixed by repeated pipetting and then serially diluted 1:3 along the remaining wells. In this manner, six compounds could be tested in duplicate on a single plate with concentrations from […]. Plates were incubated at 37° C. for seven days, subjected to one cycle of freezing and thawing; aliquots from each of the eight wells of a given column were transferred to the first column of a fresh 96-well monolayer culture of HFF cells. Contents were mixed and serially diluted 1:3 across the remaining eleven columns of the secondary plate. Each column of the original primary plate was diluted across a separate plate in this manner. Cultures were incubated, plaques were enumerated, and titers calculated as described above.
as §3

HSV-1 = HSV-1 ELISA in BSC-1 cells; type: cell-based, herpes simplex virus 1; conditions: Human alphaherpesvirus 1, quadruplicate wells, read-out: HSV-1 ELISA 50% Inhibitory Concentration (IC50)
Description: An ELISA was employed (see Prichard, M. N.; Shipman, C., Jr. A Three Dimensional Model to Analyze Drug-Drug Interactions. Antiviral Res. 1990, 14, 181-206) to detect HSV-1. Ninety-six-well cluster dishes were planted with 10,000 BSC-1 cells per well in 200 μL per well of MEM(E) plus 10% calf serum. After overnight incubation at 37° C., selected drug concentrations in quadruplicate and HSV-1 at a concentration of 100 p.f.u./well were added. Following a 3-day incubation at 37° C., medium was removed, plates were blocked, rinsed, and horse radish peroxidase conjugated rabbit anti-HSV-1 antibody was added. Following removal of the antibody containing solution, plates were rinsed, and then developed by adding 150 μL per well of a solution of tetramethylbenzidine as substrate. The reaction was stopped with H2SO4 and absorbance was read at 450 and 570 nm. Drug effects were calculated as a percentage of the reduction in absorbance in the presence of each drug concentration compared to absorbance obtained with virus in the absence of drug.
as §3

[3] = Visual cytotoxicity in stationary HFF cells; type: cell-based; conditions: human
Description: (§4) Two different assays were used for routine cytotoxicity testing. (i) Cytotoxicity produced in stationary HFF cells was determined by microscopic inspection of cells not affected by the virus used in plaque assays (see Turk, S. R.; Shipman, C., Jr.; Nassiri, M. R.; Genzingler, G.; Krawczyk, S. H.; Townsend, L. B.; Drach, J. C. Pyrrolo[2,3-]pyrimidine Nucleosides as Inhibitors of Human Cytomegalovirus, Antimicrob. Agents Chemother. 1987, 31, 544-550). (ii) The effect of compounds during two population doublings of KB cells was determined by crystal violet staining and spectrophotometric quantitation of dye eluted from stained cells as described earlier (see Prichard, M. N.; Prichard, L. E., Baguley, W. A.; Nassiri, M. R.; Shipman, C., Jr. Three-Dimensional Analysis of the Synergistic Cytotoxicity of Ganciclovir and Zidovudine. Antiviral Res. 1991, 35, 1060-1065). Briefly, 96-well cluster dishes were planted with KB cells at 3000-5000 cells per well. After overnight incubation at 37° C., test compound was added in quadruplicate at six to eight concentrations. Plates were incubated at 37° C. for 48 hours in a CO2 incubator, rinsed, fixed with 95% ethanol, and stained with 0.1% crystal violet. Acidified ethanol was added and plates read at 570 nm in a spectrophotometer designed to read 96-well ELISA assay plates.
as §3

[4] = Inhibition of KB cell growth (crystal violet); type: cell-based; conditions: human
Description: as §4, §3

HCMV Strain AD169 = test: HCMV plaque reduction assay, strain AD169; type: cell-based, Human cytomegalovirus; conditions: Human betaherpesvirus 5, Table 3, read-out: HCMV Strain AD169 plaque 50% Inhibitory Concentration (IC50)
Description: as §2, §3

[5] = Human betaherpesvirus 5, HFF, Table 3, same data as Table 2, read-out: HCMV Strain Towne plaque 50% Inhibitory Concentration (IC50)
[6] = Human betaherpesvirus 5, Table 2, HFF cells, duplicate, read-out: HCMV plaque 50% Inhibitory Concentration (IC50)
[7] = Human betaherpesvirus 5, HFF, Table 3, same data as Table 2, read-out: HCMV Strain Towne yield 90% Inhibitory Concentration (IC90)
[8] = Human betaherpesvirus 5, Table 2, HFF cells, duplicate, read-out: HCMV yield 90% Inhibitory Concentration (IC90)
[9] = HFF cells, scored at time of HCMV plaque enumeration, read-out: Cytotoxicity visual (IC50)
[10] = KB cells, KB cell growth, 48 hours, quadruplicate, read-out: Cytotoxicity growth (IC50)

Compound: CSc1nc2cc(Cl)c(Cl)cc2n1[C@@H]1O[C@@H](CO)[C@@H](O)[C@H]1O [Compound 12a, 5,6-Dichloro-1-(α-L-lyxofuranosyl)-2-(methylthio)benzimidazole]
IC50 (HCMV [1]; [6]): > 100 µM | IC50 (HSV-1): > 100 µM | IC50 [3, 9]: > 100 µM | IC50 at 48 h [4, 10]: > 100 µM

Compound: CC(C)Nc1nc2cc(Cl)c(Cl)cc2n1[C@@H]1O[C@@H](CO)[C@@H](O)[C@H]1O [Compound 7a, 5,6-Dichloro-2-isopropylamino-1-(α-L-lyxofuranosyl)benzimidazole]
IC50 (HCMV [1]; [5]): > 100 µM | IC50 (HCMV [1]; [6]): > 100 µM | IC90 (HCMV [2]; [7]): 19 µM | IC90 (HCMV [2]; [8]): 19 µM | IC50 (HSV-1): > 100 µM | IC50 [3, 9]: > 100 µM | IC50 at 48 h [4, 10]: > 100 µM | IC50 (HCMV Strain AD169): 11 µM

Compound: CSc1nc2cc(Cl)c(Cl)cc2n1[C@H]1O[C@H](CO)[C@H](O)[C@@H]1O [Compound 12b, 5,6-Dichloro-1(α-D-lyxofuranosyl)-2-(methylthio)benzimidazole]
IC50 (HCMV [1]; [6]): > 100 µM | IC90 (HCMV [2]; [8]): > 100 µM | IC50 (HSV-1): > 100 µM | IC50 [3, 9]: > 100 µM | IC50 at 48 h [4, 10]: > 100 µM

Compound: OC[C@@H]1O[C@@H](n2c(NC3CC3)nc3cc(Cl)c(Cl)cc32)[C@H](O)[C@@H]1O [Compound 8a, 2-Cyclopropylamino-5,6-dichloro-1-(α-L-lyxofuranosyl)benzimidazole]
melting point: 183 to 185 °C and 184 to 186 °C

Compound: CNc1nc2cc(Cl)c(Cl)cc2n1[C@H]1O[C@H](CO)[C@H](O)[C@@H]1O [Compound 6b, 5,6-Dichloro-1-(α-D-lyxofuranosyl)-2-(methylamino)benzimidazole]
IC50 (HCMV [1]; [6]): > 100 µM | IC90 (HCMV [2]; [8]): > 100 µM | IC50 (HSV-1): > 100 µM | IC50 [3, 9]: > 100 µM | IC50 at 48 h [4, 10]: > 100 µM

Compound: OC[C@@H]1O[C@@H](n2c(=S)[nH]c3cc(Cl)c(Cl)cc32)[C@H](O)[C@@H]1O [Compound 9a, 5,6-Dichloro-1-(α-L-lyxofuranosyl)benzimidazol-2-thione]
IC50 (HCMV [1]; [6]): > 100 µM | IC90 (HCMV [2]; [8]): > 100 µM | IC50 (HSV-1): > 100 µM | IC50 [3, 9]: > 100 µM | IC50 at 48 h [4, 10]: > 100 µM | melting point: 234 to 236 °C

More lines, main results first:

IC50 (HCMV [1]; [5]): 6 µM | IC50 (HCMV [1]; [6]): 6 µM | IC90 (HCMV [2]; [7]): 65 µM | IC90 (HCMV [2]; [8]): 65 µM | IC50 (HSV-1): 50 µM | IC50 (HCMV Strain AD169): 4.2 µM
Compound: OC[C@H]1O[C@H](n2c(Br)nc3cc(Cl)c(Cl)cc32)[C@@H](O)[C@H]1O [Compound 5b, 2-Bromo-5,6-dichloro-1-(α-D-lyxofuranosyl)benzimidazole]
IC50 [3, 9]: > 100 µM | IC50 at 48 h [4, 10]: > 100 µM

IC50 (HCMV [1]; [6]): > 100 µM | IC90 (HCMV [2]; [8]): > 100 µM | IC50 (HSV-1): > 100 µM
Compound: OC[C@H]1O[C@H](n2c(=S)[nH]c3cc(Cl)c(Cl)cc32)[C@@H](O)[C@H]1O [Compound 9b, 5,6-Dichloro-1-(α-D-lyxofuranosyl)benzimidazol-2-thione]
IC50 [3, 9]: > 100 µM | IC50 at 48 h [4, 10]: > 100 µM

IC50 (HCMV [1]; [5]): 18 µM | IC50 (HCMV [1]; [6]): 18 µM | IC90 (HCMV [2]; [7]): 3.4 µM | IC90 (HCMV [2]; [8]): 3.4 µM | IC50 (HSV-1): > 100 µM | IC50 (HCMV Strain AD169): 2.6 µM
Compound: OC[C@@H]1O[C@@H](n2c(Cl)nc3cc(Cl)c(Cl)cc32)[C@H](O)[C@@H]1O [Compound 4a, 1-(α-L-Lyxofuranosyl)-2,5,6-trichlorobenzimidazole]
IC50 [3]: 190 µM | IC50 at 48 h [4]: > 100 µM

IC50 (HCMV [1]; [6]): 39 ± 26 µM
Compound: O=C(O)P(=O)(O)O [foscarnet, reference compound]
IC50 [3, 9]: > 100 µM

IC50 (HCMV [1]; [6]): > 100 µM | IC50 (HSV-1): > 100 µM | melting point: 126 to 128 °C and 131 to 132 °C
Compound: CNc1nc2cc(Cl)c(Cl)cc2n1[C@@H]1O[C@@H](CO)[C@@H](O)[C@H]1O [Compound 6a, 5,6-Dichloro-1-(α-L-lyxofuranosyl)-2-(methylamino)benzimidazole]
IC50 [3, 9]: > 100 µM | IC50 at 48 h [4, 10]: > 100 µM

IC50 (HCMV [1]; [5]): 60 µM | IC50 (HCMV [1]; [6]): 60 µM | IC90 (HCMV [2]; [7]): 17 µM | IC90 (HCMV [2]; [8]): 17 µM | IC50 (HSV-1): > 100 µM | IC50 (HCMV Strain AD169): 32 µM
Compound: CC(C)Nc1nc2cc(Cl)c(Cl)cc2n1[C@H]1O[C@H](CO)[C@H](O)[C@@H]1O [Compound 7b, 5,6-Dichloro-2-isopropylamino-1-(α-D-lyxofuranosyl)benzimidazole]
IC50 [3, 9]: > 100 µM | IC50 at 48 h [4, 10]: > 100 µM

IC50 (HCMV [1]; [5]): 18 µM | IC50 (HCMV [1]; [6]): 18 µM | IC90 (HCMV [2]; [7]): > 100 µM | IC90 (HCMV [2]; [8]): > 100 µM | IC50 (HSV-1): 90 µM | IC50 (HCMV Strain AD169): 9 µM
Compound: OC[C@H]1O[C@H](n2c(Cl)nc3cc(Cl)c(Cl)cc32)[C@@H](O)[C@H]1O [Compound 4b, 1-(α-D-Lyxofuranosyl)-2,5,6-trichlorobenzimidazole]
IC50 [3]: > 100 µM | IC50 at 48 h [4]: > 100 µM
